The source of these data is patent publication US20240207299A1, “PYRROLOPYRIMIDINE NUCLEOSIDES FOR TREATING OR PREVENTING A SARS-COV-2 INFECTION” (Chimerix, Inc., priority 2021, published 2024).

The test system of data set [1] is SARS-CoV-2. To be noted: MRC5 cells; cited from earlier work.
Data set [2] has as its system SARS-CoV-2 (USA-WA1/2020). Nature of the data set: Neutral red CPE assay in Vero E6 cells. It counts as cell-based. Particulars: for EC50: Severe acute respiratory syndrome coronavirus 2, Vero C1008, 72 h, read-out: EC50: 50% effective antiviral concentration.
A short description of data set [3]: Cytotoxicity without virus, neutral red, Vero E6 cells. It counts as cell-based. To be noted: African green monkey; Neutral Red in Vero E6 cells; read-out: CC50: 50% cytotoxic concentration of compound without virus added. As for the experimental part: Neutral red assay in Vero E6 cells: Compound dilutions were added to 96-well plates containing 80-100% confluent Vero E6 cells. Cells were incubated with compound for 1-2 hours and then infected with virus at a low MOI to achieve >80% cytopathic effect (CPE) within 5 days of incubation. On day 3 post-infection, CPE was quantitated by neutral red staining. Briefly cells were stained with neutral red for 2 hours, dye removed, and wells rinsed with PBS. The incorporated dye was extracted in Sorensen citrate buffer/ethanol (50:50) and absorbance measured on a spectrophotometer at 540 nm. Compound dilution that reduced virus CPE by 50% (EC50) was calculated along with cytotoxicity in the absence of virus infection (CC50).

Data set [4] relates to SARS-CoV-2 (USA-WA1/2020). In words: microbe, parasite or virus in culture. It counts as cell-based. To be noted: Severe acute respiratory syndrome coronavirus 2, Caco-2, 72 h, read-out: EC90: Calculated concentration to reduce virus yield by 1 log (90%) (converted).
Data set [5] in a line: Cytotoxicity, neutral red, Caco2 cells. It counts as cell-based. To be noted: human, read-out: CC50: 50% cytotoxic concentration of compound without virus added. As for the experimental part:
Virus yield reduction assay in Caco-2 cells: The virus yield reduction (VYR) assay set up was similar to that described for the neutral red assay excepting Caco2 cells were used. On day 3 post-infection, cell culture supernatant from wells was collected and infectious virus determined by running a standard endpoint dilution CCID50 assay. Compound dilution that reduced virus yield by 1 log10 was calculated. After collection of cell culture supernatant from wells on day 3 post-infection, plates were stained as described in the neutral red assay to determine CC50 in Caco2 cells.

Data set [6] has as its system SARS-CoV-2 strain USA-WA1 2020 (nLuc reporter). Nature of the data set: microbe, parasite or virus in culture. It counts as cell-based.
For data set [7], the system named is Murine hepatitis virus (MHV) strain MHV-A59 (nLuc reporter). In words: microbe, parasite or virus in culture. It counts as cell-based. To be noted: Murine coronavirus.
A further data set concerns WIV1. Nature of the data set: microbe, parasite or virus in culture. It counts as cell-based, bat-derived SARS-like coronavirus. Particulars: HAE cells.
A further data set concerns SHC014. Nature of the data set: microbe, parasite or virus in culture. It counts as cell-based, bat-derived SARS-like coronavirus. To be noted: HAE cells.
The test system of another data set is uninfected cells. Nature of the data set: Cytotoxicity in uninfected cells, Sigma TOX7 LDH release. It counts as cell-based. Particulars: any concentration. As for the experimental part: For each assay, percent inhibition was calculated by comparing luciferase activity in cells treated with compound to that in cells treated with vehicle (DMSO) control. Cells were treated with 2.5 μM remdesivir as a control where indicated. Cytotoxicity was measured in uninfected cells in parallel assays using the Sigma TOX7 assay for LDH release.
A general note: LDH leaks from cells whose membrane has failed.

The test system of data set [8] is SARS-CoV-2. Nature of the data set: hACE2 transgenic mouse model of SARS-CoV-2 disease. It counts as in vivo, human ACE2 transgenic mouse. Particulars: 50 mg/kg once per day intraperitoneal, Day 5.
The nature of data set [9]: Tolerability of single inhaled aerosol dose in healthy BALB/c mice. It counts as in vivo. Particulars: 5 mg aerosol single dose; dosing period and 8-hour post-dose period. As for the experimental part: Tolerability and pharmacokinetics (PK) of a single dose of Compound 1 delivered as aerosol via nebulized liquid in a flow-past pie-chamber model to healthy BALB/c mice. Compound 1 and Compound 60 concentrations were evaluated in plasma and lung tissue were determined.
Nine female, 9-11 week old BALB/c mice were housed in 9 individual wedges of the inhalation device described above. The input holes of the remaining 3 wedges were taped off to maximize delivery to the 9 mice. A liquid formulation of 5 mg/mL Compound 1 (pH 6.0) was prepared immediately prior to dosing and dispensed into the compressor chamber. The entire contents (9 mL) of the formulation solution were aerosolized and delivered to the 9 mice over a period of 20-30 min. This method delivered 5 mg Compound 1 to each wedge containing a single mouse over the period of nebulization.
Mice were monitored for adverse clinical signs with special attention given to signs related to eye irritation.

For data set [10] the following is noted: individual animals; for Plasma Compound 1 Concentration: 5 mg delivered dose, aerosol, single dose.
The next data set is described as follows: in vivo. Particulars: female, BALB/c, mouse, 5 mg.
Another data set in a line: Oral GLP toxicology. To be noted: rats/dogs.
Data set [11] can be described thus: Genotoxicity / mitotoxicity.
Data set [12] is described as follows: Healthy volunteer Phase 1 study of oral Compound 1. Particulars: healthy volunteers.
The mark [13] stands for this setting: Severe acute respiratory syndrome-related coronavirus, HAE.
Where [14] appears, read: 5 mg Compound 1 aerosol, 1 hr post-dose.
Setting [15] is: 5 mg Compound 1 aerosol, 3 hr post-dose.
The mark [16] stands for this setting: Mean Plasma Compound 1 Concentration.
The mark [17] stands for this setting: Plasma Compound 1 Concentration.

Where “and” joins values, the source holds several entries; their conditions need not be identical. Identical values can stand only once. Entries after “also recorded” stand apart in the source; their conditions may differ. Like-named read-outs stand apart in the source and are kept apart here.

For the compound `CNc1nc(N)nc2c1ncn2[C@@H]1O[C@H](COP(=O)(N[C@@H](C)C(=O)OC(C)C)Oc2ccccc2)[C@@H](O)[C@@]1(C)F.CNc1nc(N)nc2c1ncn2[C@@H]1O[C@H](COP(=O)(N[C@@H](C)C(=O)OC(C)C)Oc2ccccc2)[C@@H](O)[C@@]1(C)F.O=S(=O)(O)O` (stereo partly shown) [AT-527], the “antiviral activity against SARS-CoV-2” value in the data set on SARS-CoV-2 [1] is listed as “lack of antiviral activity against SARS-CoV-2”.

Turning to `Cc1nc(N)c2c(C(N)=O)cn([C@@H]3O[C@H](CO)[C@@H](O)[C@H]3O)c2n1` [Compound 1, 4-amino-7-((2R,3R,4S,5R)-3,4-dihydroxy-5-(hydroxymethyl)tetrahydrofuran-2-yl)-2-methyl-7H-pyrrolo[2,3-d]pyrimidine-5-carboxamide], in data set [2] (Neutral Red in Vero E6 cells), the “SI: Selectivity Index (CC50/EC50)” value is >1.8. Moreover, the EC50 in data set [2] is 56000 nM; in data set [6] (HAE cells donor code yellow, 8 point dose-response curve, read-out: EC50), 940 nM; in data set [6] (Severe acute respiratory syndrome coronavirus 2, Epithelial cell, read-out: average EC50, SARS-CoV-2 replication), 900 nM; in data set [6] (Severe acute respiratory syndrome coronavirus 2, HAE, HAE cells donor code blue, 5 point dose-response curve, read-out: EC50), 550 nM; in data set [6] (Severe acute respiratory syndrome coronavirus 2, HAE, HAE cells donor code purple, 5 point dose-response curve, read-out: EC50) it was 380 nM; in data set [6] (Severe acute respiratory syndrome coronavirus 2, HAE, HAE cells donor code yellow, 4 point dose-response curve, read-out: EC50) it was 310 nM. Also, the EC50 was found to be 160 nM in [6] (Severe acute respiratory syndrome coronavirus 2, HAE, HAE cells donor code yellow, 5 point dose-response curve, read-out: EC50); 350 nM in [6] (Severe acute respiratory syndrome coronavirus 2, HAE, HAE cells donor code yellow, 7 point dose-response curve, read-out: EC50); 1100 nM in [6] (Severe acute respiratory syndrome coronavirus 2, HAE, HAE cells donor code yellow, 8 point dose-response curve, read-out: EC50); 540 nM in data set [6] (Severe acute respiratory syndrome coronavirus 2, HAE, mean of the HAE cell determinations, read-out: Mean SARS-CoV-2 EC50); 540 nM in data set [6] (mean of the HAE cell determinations, read-out: Mean SARS-CoV-2 EC50); 380 nM in data set [7]. Also, the EC50 with WIV1 was 1010 nM; in the data set on WIV1 (setting [13]), ~1000 nM; in the data set with SHC014, 980 nM; in the data set with SHC014 (setting [13]) it was ~1000 nM. The CC50 at 3 days in data set [3] and in data set [5] was > 100000 nM each time. Also, the EC90 in data set [4] was 2100 nM. For the same compound, the “Effect on cell viability” value with uninfected cells was “No effect on cell viability was seen at any concentration”. Also, in the data set on SARS-CoV-2 [8] (started 4-6 h after challenge, vehicle Cq 23), the “average Cq, virus genome in lungs (qPCR)” value was 22. Besides, in the data set with SARS-CoV-2 [8], the “effect on virus genome levels in lungs / efficacy” value is reported as “did not alter the virus genome levels detected in lungs; also recorded: not effective at inhibiting SARS-CoV-2”. Also, in the data set on SARS-CoV-2 [8] (likely failure of challenge or RNA recovery), the “Cq of one male mouse with lower than expected virus genome loads” value was 38. Further, the “clinical signs of irritation or intolerability” value in data set [9] is given as “No clinical signs of irritation or intolerability”. Further, the “Lung tissue Compound 1 concentration, Middle lobe” value in data set [10] (setting [14]) was 1323 pmol/g and 988 pmol/g and 1061 pmol/g; in data set [10] (5 mg Compound 1 aerosol, 8 hr post-dose), 73 pmol/g and 137 pmol/g and 99 pmol/g. Also, the “Lung tissue Compound 1 concentration, PC lobe” value in [10] (setting [14]) was 986 pmol/g and 673 pmol/g and 430 pmol/g. The “Lung tissue Compound 1 concentration, Superior lobe” value in data set [10] (setting [14]) is 1867 pmol/g and 1219 pmol/g and 1212 pmol/g; in data set [10] (setting [15]), 398 pmol/g and 167 pmol/g and 305 pmol/g. In addition, the “Lung tissue Compound 1 concentration, Inferior lobe” value in [10] (setting [15]) is 209 pmol/g and 93 pmol/g and 110 pmol/g. For the same compound, the “Lung tissue Compound 1 concentration, Left lobe” value in [10] (setting [15]) was 106 pmol/g and 116 pmol/g and 140 pmol/g. Besides, the “Plasma Compound 1 Concentration” value in [10] (1 hr post-dose) is 39.1 ng/mL and 53.7 ng/mL; in [10] (3 hr post-dose), 20.8 ng/mL and 14.8 ng/mL; in [10] (8 hr post-dose), 15.4 ng/mL and 12.6 ng/mL. Moreover, the Kp in the data set “in vivo” is ~20. Also, the Kp at 8 h in “in vivo” is ~12. Moreover, the concentration at 1 h is 41.8 ng/mL in the data set “in vivo” (setting [16]) and 32.5 ng/mL in “in vivo” (setting [17]). For the same compound, the concentration at 3 h was 18 ng/mL in the data set “in vivo” (setting [16]) and 18.5 ng/mL in the data set “in vivo” (setting [17]). Moreover, the values for the concentration at 8 h in the data set “in vivo” (setting [16]) and in the data set “in vivo” (setting [17]) were 13.3 ng/mL and 11.9 ng/mL, respectively. Also, the toxicology profile result in “Oral GLP toxicology” was “favorable toxicology profile”. Besides, the genotoxicity / mitotoxicity entry in data set [11] is reported as “not genotoxic or mitotoxic”. In addition, the generally well-tolerated dose result in data set [12] is “up to 2400 mg”.

As for `NC(=O)c1cn([C@@H]2O[C@H](CO)[C@@H](O)[C@H]2O)c2ncnc(N)c12` [Sangivamycin, reference compound], the “SI: Selectivity Index (CC50/EC50)” value in data set [2] (Neutral Red in Vero E6 cells) was 1.9. Moreover, the EC50 in [2] (Neutral Red in Vero E6 cells, day 3 post-infection) amounted to 7 nM. Also, the CC50 at 3 days in [3] was determined as 10 nM; in [5], 120 nM. The EC90 in data set [4] is 120 nM.
